Laboratory results taken from patent publication US8592374B2, “Neurotrophic peptides” (Research Foundation for Mental Hygiene, Inc., priority 2007, dated 2013).

What was measured:
dentate gyrus = assay: MAP2 and synaptophysin immunoreactivity in the dentate gyrus (mean pixel intensity), Example 3; format: in vivo, mice; conditions: mean pixel intensity in outlined area
Description: (§1) The animals were kept in groups of 3 per cage. The mice were given daily intraperitoneal injections of four CNTF peptides either separately or in a mixture for 2 weeks as described in table 1. From day 2, BrdU (Bromodeoxyuridine; 150 mg/Kg) was added to the injections. The animals were sacrificed 24 hours after the last injection (FIG. 1). Briefly, the animals were perfused transcardially with PBS and their brains taken out and dissected into halves. One hemisphere from each animal was frozen for biochemical analysis and the other was fixed in 4% paraformaldehyde for 48 hours followed by equilibration in 30% sucrose in PBS overnight. These were then processed for immunohistochemistry.

[1] = test system: dentate gyrus progenitors; assay: DCX expression in BrdU labeled progenitors in the dentate gyrus; format: in vivo, mice; conditions: 14 day treatment group
Source text: (§2) All experiments involving mice were done on 8-10 month old female retired breeders of C57BL6 background. A total of 33 mice were divided into 10 groups of 3 animals each (except control group which had 6 mice). The groups are described in Table 1. Details of CNTF peptides are described in Table 2.
as §1
(§3) Fixed tissues were cut into 40 μm sections on a freezing sliding microtome. One in 5 sections per brain was processed for BrdU staining and visualized by immunoflorecence. Cell counting was done on these sections to determine the number of BrdU labeled cells (representing newly born cells) in the dentate gyrus of the hippocampus. The area of counting was limited to the granule cell layer and the subgranular zone (a two-nucleus thick layer adjacent to the granule cell layer). For counting purposes, the dentate gyrus was divided into two areas, the outer granule cell layer (oGCL) consisting of out half of the granule cell layer, and the subventricular zone (SVZ) comprising of the inner half (towards the hilus) of the granule cell layer plus a two-nucleus thick layer adjacent to the outer border of the hilus. Cell counting was done on confocal images of the sections according to the optical dissector principle. Volumetric analysis was carried out with the help of Image Pro software.

mice = assay: Morris Water Maze, Peptide 6 subcutaneous pellets; format: in vivo; conditions: 30 day group
Description: Behavioral tests employing Morris Water maze task-based memory acquisition, retention and recall paradigms have also been carried out. Two groups of 18 mice each were treated with Peptide 6/Placebo containing implantable subcutaneous pellets with user specified timed release kinetics: 14 days for group 1 and 30 days for group 2.

[2] = test system: dentate gyrus progenitor cells; assay: Cell proliferation (BrdU labeled cells) in the dentate gyrus of mice given CNTF peptides i.p.; format: in vivo
Source text: as §2
as §1, with “Table” for “table”, “injection.” for “injection (FIG. 1).”
as §3, with “of one” for “of out”, “the subgranular” for “the subventricular”, “zone (SGZ)” for “zone (SVZ) comprising”
as §1, §3

[3] = test system: signal transduction of LIF and CNTF; assay: Interference with signal transduction of LIF and CNTF
[4] = both concentrations (0.5 and 5 nmoles/animal)

## Ac-VGDGGLFEKKL-NH2 [Peptide 6]
Dentate gyrus
  MAP2 immunoreactivity in the dentate gyrus: statistically significant increase
  synaptophysin immunoreactivity in the dentate gyrus: statistically significant increase
[1]
  differentiation of dentate gyrus progenitors into DCX (doublecortin) expressing cells: two fold increase
mice
  memory acquisition (time spent and distance covered in the target quadrant), Morris Water Maze: significant improvement in memory acquisition
[2]; [4]
  cell proliferation in the SGZ (subgranular zone): increased cell proliferation
  cell proliferation in the oGCL (outer portion of the granule cell layer): increased cell proliferation
[2]; daily i.p. injections for 2 weeks
  proliferation of dentate gyrus progenitor cells compared with Peptide 9: more proliferation than Peptide 9
[2]; daily i.p. injections for 2 weeks, BrdU labeling, 8-10 month old female C57BL6 mice
  proliferation of dentate gyrus progenitor cells: statistically significant increase
[3]
  interference with signal transduction of LIF versus CNTF: interferes with the signal transduction of LIF more than with that of CNTF
